A value given as a limit tells only on which side of the number the result lay.

Holding throughout (type): cell-based
Assay [1] deals with T1, human P2X7 (Homo sapiens (Human), UniProt Q99572). Nature of the assay: P2X7 antagonism in human PBMCs (IL-1β release after LPS + Bz-ATP, ELISA). The conditions noted are these: human PBMCs; for PBMC 1 μM (% control): test compound 1 μM.
Protocol: P2X7 Antagonism in Human Peripheral Blood Mononuclear Cells (PBMCs) and Human Whole Blood.
Human blood was collected using a blood donor program. PBMCs were isolated from blood using a Ficoll density gradient technique. Briefly, blood was laid on Ficoll solution and centrifuged at RT for 20 minutes at 2000 rpm. The buffy layer (between red blood cells and plasma) was carefully collected by aspiration, washed with PBS and centrifuged again at 1500 rpm for 15 minutes. The resulting cell pellet was washed and plated on 96 well-plates for experiments. For the Human Whole Blood experiments, 150 μl of human blood was platted on 96 well-plates. Lipopolysaccharide (LPS) (30 ng/ml) was added to each well and incubated for 1 hour. Test compounds were then added and incubated for 30 minutes. The P2X7 agonist, 2′(3′)-O-(4-benzoylbenzoyl) adenosine 5′ triphosphate (Bz-ATP) was then added at a final concentration of 0.5 mM (PBMC) or 1 mM (blood). Cells were incubated for an additional 1.5 hours. At that point, supernatant was collected and stored for IL-1β assay using manufacturer's protocol for enzyme-linked immunosorbent assay (ELISA). Data was expressed as percent control, where control is defined as the difference in IL-1β release in LPS+Bz-ATP samples and LPS only samples. Data was plotted as response (% control) versus concentration to generate IC50 values. […] Data are analyzed and graphed on Graphpad Prism 5. For analysis, each concentration point is averaged from triplicate values and the averaged values are plotted on Graphpad Prism.
Assay [2] concerns the target T1, human P2X7. The assay is described as follows: Ca2+ flux (FLIPR) in 1321N1 cells expressing recombinant human P2X7.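 Also: cells loaded with Calcium-4 dye, preincubated with test compound for 30 min, fluorescence change read 180 s after agonist addition.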
For a further assay, the target named is rat P2X7 (Rattus norvegicus (Rat), UniProt Q64663). The assay is described as follows: Ca2+ flux (FLIPR) in 1321N1 cells expressing recombinant rat P2X7.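 Also: Calcium-4 dye fluorescence change read 180 s after agonist addition, with cells preincubated 30 min with compound and dye in 96-well plates.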
Chain of rat P2X7 (Q64663 whole entry): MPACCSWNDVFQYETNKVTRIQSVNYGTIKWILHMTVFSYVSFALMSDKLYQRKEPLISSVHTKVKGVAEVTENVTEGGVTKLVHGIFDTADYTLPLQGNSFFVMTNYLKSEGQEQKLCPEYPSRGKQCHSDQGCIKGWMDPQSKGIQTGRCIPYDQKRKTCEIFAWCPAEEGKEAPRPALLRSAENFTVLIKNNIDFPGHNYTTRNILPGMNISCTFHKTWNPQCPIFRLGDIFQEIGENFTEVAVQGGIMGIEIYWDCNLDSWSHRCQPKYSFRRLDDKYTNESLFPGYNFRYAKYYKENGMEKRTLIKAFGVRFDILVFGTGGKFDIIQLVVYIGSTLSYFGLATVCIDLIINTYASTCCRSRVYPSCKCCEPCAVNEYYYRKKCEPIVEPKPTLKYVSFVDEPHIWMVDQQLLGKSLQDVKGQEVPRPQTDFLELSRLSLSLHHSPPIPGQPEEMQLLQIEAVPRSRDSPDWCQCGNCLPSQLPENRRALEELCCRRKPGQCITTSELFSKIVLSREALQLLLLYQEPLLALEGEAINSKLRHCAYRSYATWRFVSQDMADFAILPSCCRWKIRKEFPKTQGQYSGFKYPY
Protocol: P2X7 Antagonism in Recombinant Human P2X7 Cells or Recombinant Rat P2X7 Cells: (a) Ca^2+ Flux and (b) Radioligand Binding
1321N1 cells expressing the recombinant human or rat P2X7 channel was cultured in HyQ DME/(HyClone/Dulbecco's Modified Eagle Medium) high glucose supplemented with 10% Fetal Bovine Serum (FBS) and appropriate selection marker. Cells were seeded at a density of 25000 cells/well (96-well clear bottom black walled plates) in 100 μl volume/well. On the day of the experiment, cell plates were washed with assay buffer, containing (in mM): 130 NaCl, 2 KCl, 1 CaCl2, 1 MgCl2, 10 HEPES, 5 glucose; pH 7.40 and 300 mOs. After the wash, cells were loaded with the Calcium-4 dye (Molecular Device) and incubated in the dark for 60 minutes. Test compounds were prepared at 250× the test concentration in neat DMSO. Intermediate 96-well compound plates were prepared by transferring 1.2 μL of the compound into 300 μL of assay buffer. A further 3× dilution occurred when transferring 50 μL/well of the compound plate to 100 μL/well in the cell plate. Cells were incubated with test compounds and dye for 30 minutes. […] The fluorescence change was measured 180 seconds after adding the agonist.
Setting [3] is: 1321N1 cells, recombinant human P2X7, 250 μM BzATP.
[4] abbreviates: 1321N1 cells, recombinant rat P2X7, 250 μM BzATP.
Setting [5] is: 10 μM test compound, LPS + Bz-ATP.
Where [6] appears, read: Ca2+ flux, 250 μM BzATP, human P2X7 1321N1 cells.
The mark [7] stands for this setting: Ca2+ flux, 250 μM BzATP, rat P2X7 1321N1 cells.

T1 sequence (Q99572 whole entry): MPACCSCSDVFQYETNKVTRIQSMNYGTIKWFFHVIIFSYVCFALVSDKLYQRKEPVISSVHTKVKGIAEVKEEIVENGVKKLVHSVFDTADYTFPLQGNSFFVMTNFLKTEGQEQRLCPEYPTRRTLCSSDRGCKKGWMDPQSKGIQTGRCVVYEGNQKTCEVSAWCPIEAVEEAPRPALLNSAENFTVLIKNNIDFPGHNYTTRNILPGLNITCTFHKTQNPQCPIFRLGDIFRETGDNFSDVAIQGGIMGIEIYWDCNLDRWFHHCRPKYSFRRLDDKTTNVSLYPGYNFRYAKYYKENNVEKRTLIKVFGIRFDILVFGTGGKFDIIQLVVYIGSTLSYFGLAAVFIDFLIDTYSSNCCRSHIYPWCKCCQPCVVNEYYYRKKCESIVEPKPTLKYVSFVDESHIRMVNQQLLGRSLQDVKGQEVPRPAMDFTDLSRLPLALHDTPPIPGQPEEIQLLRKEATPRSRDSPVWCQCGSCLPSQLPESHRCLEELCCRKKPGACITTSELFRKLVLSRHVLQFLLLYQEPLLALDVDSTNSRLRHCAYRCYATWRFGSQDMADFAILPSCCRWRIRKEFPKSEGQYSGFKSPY

Consider `Cc1c(C(=O)N2CCc3c(nnn3-c3ncccn3)C2)cccc1C(F)(F)F` [Example 281, (2-methyl-3-(trifluoromethyl)phenyl)(1-(pyrimidin-2-yl)-6,7-dihydro-1H-[1,2,3]triazolo[4,5-c]pyridin-5(4H)-yl)methanone], for which the “PBMC 10 μM (% control)” value at human P2X7 [1] (test compound 10 μM) was −1.9 % control. Further, the IC50 on human P2X7 [2] (setting [3]) was found to be 2.2 nM; on rat P2X7 (setting [4]) it was 349 nM.

With `CC1c2n[nH]c(-c3ccnn3C)c2CCN1C(=O)c1cccc(Cl)c1Cl` (stereo not drawn) [Example 436, (2,3-dichlorophenyl)(7-methyl-3-(1-methyl-1H-pyrazol-5-yl)-4,5-dihydro-2H-pyrazolo[3,4-c]pyridin-6(7H)-yl)methanone], at human P2X7 [1] (setting [5]), the “PBMC 10 μM (% control)” value is reported as −3.4 % control. Moreover, the results for the IC50 on human P2X7 [2] (setting [6]) and at rat P2X7 (setting [7]) were 1130 nM and greater than 10000 nM, respectively.

With `Cc1cc(-n2nnc3c2CCN(C(=O)c2cc(Cl)cc(C(F)(F)F)c2)[C@H]3C)ncc1F` (single isomer, unassigned) [Example 363, (S*)-(3-chloro-5-(trifluoromethyl)phenyl)(1-(5-fluoro-4-methylpyridin-2-yl)-4-methyl-6,7-dihydro-1H-[1,2,3]triazolo[4,5-c]pyridin-5(4H)-yl)methanone], on human P2X7 [1] (test compound 10 μM), the “PBMC 10 μM (% control)” value is reported as 63.9 % control. The IC50 at human P2X7 [2] (setting [3]) and at rat P2X7 (setting [4]) was greater than 10000 nM in each case.

Regarding `CC(C)n1ccc(-n2nnc3c2C[C@H](C)N(C(=O)c2cccc(C(F)(F)F)c2Cl)C3)n1` [Example 412, (S)-(2-chloro-3-(trifluoromethyl)phenyl)(1-(1-isopropyl-1H-pyrazol-3-yl)-6-methyl-6,7-dihydro-1H-[1,2,3]triazolo[4,5-c]pyridin-5(4H)-yl)methanone], the “PBMC 10 μM (% control)” value on human P2X7 [1] (setting [5]) is −12.6 % control. In addition, the IC50 came out at 28.3 nM at human P2X7 [2] (setting [6]) and 4.1 nM on rat P2X7 (setting [7]).

In the case of `Cc1ccnc(-n2nnc3c2CCN(C(=O)c2cccc(OC(F)(F)F)c2F)C3C)c1` (stereo not drawn) [Example 373, (2-fluoro-3-(trifluoromethoxy)phenyl)(4-methyl-1-(4-methylpyridin-2-yl)-6,7-dihydro-1H-[1,2,3]triazolo[4,5-c]pyridin-5(4H)-yl)methanone], the “PBMC 10 μM (% control)” value at human P2X7 [1] (test compound 10 μM) is reported as 17.2 % control. For the same compound, the results for the IC50 on human P2X7 [2] (setting [3]) and on rat P2X7 (setting [4]) were 1660 nM and 10100 nM, respectively.

For `O=C(c1ccc(Cl)cc1F)N1CCc2c(nnn2-c2ncccn2)C1` [Example 280, (4-chloro-2-fluorophenyl)(1-(pyrimidin-2-yl)-6,7-dihydro-1H-[1,2,3]triazolo[4,5-c]pyridin-5(4H)-yl)methanone], the “PBMC 10 μM (% control)” value at human P2X7 [1] (test compound 10 μM) was determined as 3.4 % control. The IC50 was determined as 255 nM at human P2X7 [2] (setting [3]) and 1350 nM at rat P2X7 (setting [4]).

With `C[C@H]1Cc2c(nnn2-c2ncc(F)cn2)CN1C(=O)c1cccc(C(F)(F)F)c1O` [Example 426, (S)-(1-(5-fluoropyrimidin-2-yl)-6-methyl-6,7-dihydro-1H-[1,2,3]triazolo[4,5-c]pyridin-5(4H)-yl)(2-hydroxy-3-(trifluoromethyl)phenyl)methanone], on human P2X7 [1] (setting [5]), the “PBMC 10 μM (% control)” value worked out at 113.2 % control. The IC50 at human P2X7 [2] (setting [6]) and at rat P2X7 (setting [7]) was greater than 10000 nM in each case.

Consider `CC(C)n1ccc(-n2nnc3c2CCN(C(=O)c2cccc(C(F)(F)F)c2F)[C@H]3C)n1` [Example 415, (S)-(2-fluoro-3-(trifluoromethyl)phenyl)(1-(1-isopropyl-1H-pyrazol-3-yl)-4-methyl-6,7-dihydro-1H-[1,2,3]triazolo[4,5-c]pyridin-5(4H)-yl)methanone], for which the “PBMC 10 μM (% control)” value at human P2X7 [1] (setting [5]) turned out to be 1.5 % control. Besides, the IC50 stood at 146 nM at human P2X7 [2] (setting [6]) and 12.9 nM on rat P2X7 (setting [7]).

Regarding `Cc1nccc(-n2nnc3c2CCN(C(=O)c2cccc(C(F)(F)F)c2F)C3C)n1` (stereo not drawn) [Example 400, (2-fluoro-3-(trifluoromethyl)phenyl)(4-methyl-1-(2-methylpyrimidin-4-yl)-6,7-dihydro-1H-[1,2,3]triazolo[4,5-c]pyridin-5(4H)-yl)methanone], the “PBMC 10 μM (% control)” value at human P2X7 [1] (test compound 10 μM) was found to be 32.0 % control. For the same compound, the IC50 is 16900 nM at human P2X7 [2] (setting [3]) and greater than 10000 nM on rat P2X7 (setting [4]).

On to `O=C(c1cccc(C(F)(F)F)c1Cl)N1CCc2c(nnn2-c2ccccc2)C1` [Example 61, 5-{[2-Chloro-3-(trifluoromethyl)phenyl]carbonyl}-1-phenyl-4,5,6,7-tetrahydro-1H-[1,2,3]triazolo[4,5-c]pyridine], for which, at human P2X7 [1], the “PBMC 1 μM (% control)” value was −0.1 % control. The IC50 at human P2X7 [2] (setting [3]) worked out at 2.7 nM; on rat P2X7 (setting [4]), 1870 nM.

With `CCOC(=O)C1c2ncn(-c3ccccn3)c2CCN1C(=O)c1cccc(C(F)(F)F)c1Cl` (stereo not drawn) [Example 24, Ethyl 5-(2-chloro-3-(trifluoromethyl)benzoyl)-1-(pyridin-2-yl)-4,5,6,7-tetrahydro-1H-imidazo[4,5-c]pyridine-4-carboxylate], on human P2X7 [1], the “PBMC 1 μM (% control)” value was found to be 2.9 % control. Also, the IC50 is 23.3 nM on human P2X7 [2] (setting [3]) and 26.2 nM at rat P2X7 (setting [4]).

`Cc1cc(-n2nnc3c2CCN(C(=O)c2ccnc(C(F)(F)F)c2Cl)C3C)ncn1` (stereo not drawn) [Example 403, (3-chloro-2-(trifluoromethyl)pyridin-4-yl)(4-methyl-1-(6-methylpyrimidin-4-yl)-6,7-dihydro-1H-[1,2,3]triazolo[4,5-c]pyridin-5(4H)-yl)methanone]: at human P2X7 [1] (test compound 10 μM), the “PBMC 10 μM (% control)” value is listed as −0.2 % control. Besides, the results for the IC50 on human P2X7 [2] (setting [3]) and on rat P2X7 (setting [4]) were 436 nM and 12500 nM, respectively.

For `O=C(c1cccc(Cl)c1Cl)N1CCc2c(nnn2-c2ncccn2)C1` [Example 67, 5-[(2,3-Dichlorophenyl)carbonyl]-1-pyrimidin-2-yl-4,5,6,7-tetrahydro-1H-[1,2,3]triazolo[4,5-c]pyridine], the “PBMC 10 μM (% control)” value on human P2X7 [1] (test compound 10 μM) is given as 6.5 % control. Also, the IC50 turned out to be 2 nM on human P2X7 [2] (setting [3]) and 53 nM at rat P2X7 (setting [4]).

With `CC(C)n1ccc(-n2nnc3c2C[C@H](C)N(C(=O)c2ccnc(C(F)(F)F)c2Cl)C3)n1` [Example 416, (S)-(3-chloro-2-(trifluoromethyl)pyridin-4-yl)(1-(1-isopropyl-1H-pyrazol-3-yl)-6-methyl-6,7-dihydro-1H-[1,2,3]triazolo[4,5-c]pyridin-5(4H)-yl)methanone], the “PBMC 10 μM (% control)” value on human P2X7 [1] (setting [5]) came to 1.9 % control. In addition, the IC50 came out at 47.3 nM on human P2X7 [2] (setting [6]) and 8.1 nM on rat P2X7 (setting [7]).

Regarding `Cc1cc(-n2nnc3c2CCN(C(=O)c2cccc(OC(F)(F)F)c2F)C3C)ncc1F` (stereo not drawn) [Example 374, (2-fluoro-3-(trifluoromethoxy)phenyl)(1-(5-fluoro-4-methylpyridin-2-yl)-4-methyl-6,7-dihydro-1H-[1,2,3]triazolo[4,5-c]pyridin-5(4H)-yl)methanone], the “PBMC 10 μM (% control)” value at human P2X7 [1] (test compound 10 μM) is listed as 104.3 % control. Moreover, the IC50 at human P2X7 [2] (setting [3]) and on rat P2X7 (setting [4]) was greater than 10000 nM throughout.

Regarding `Cc1cc(-n2nnc3c2CCN(C(=O)c2cc(Cl)cc(C(F)(F)F)c2)[C@@H]3C)ncc1F` (single isomer, unassigned) [Example 362, (R*)-(3-chloro-5-(trifluoromethyl)phenyl)(1-(5-fluoro-4-methylpyridin-2-yl)-4-methyl-6,7-dihydro-1H-[1,2,3]triazolo[4,5-c]pyridin-5(4H)-yl)methanone], at human P2X7 [1] (test compound 10 μM), the “PBMC 10 μM (% control)” value came out at 90.2 % control. For the same compound, the IC50 on human P2X7 [2] (setting [3]) and at rat P2X7 (setting [4]) was greater than 10000 nM throughout.

Take `C[C@H]1Cc2c(nnn2-c2ncc(O)cn2)CN1C(=O)c1cccc(C(F)(F)F)c1F` [Example 428, (S)-(2-fluoro-3-(trifluoromethyl)phenyl)(1-(5-hydroxypyrimidin-2-yl)-6-methyl-6,7-dihydro-1H-[1,2,3]triazolo[4,5-c]pyridin-5(4H)-yl)methanone]: on human P2X7 [1] (setting [5]), the “PBMC 10 μM (% control)” value stood at 1.4 % control. The results for the IC50 at human P2X7 [2] (setting [6]) and on rat P2X7 (setting [7]) were 16.6 nM and 21.2 nM, respectively.

As to `CCOC(=O)C1c2ncn(-c3cnccn3)c2CCN1C(=O)c1cccc(C(F)(F)F)c1Cl` (stereo not drawn) [Example 28, Ethyl 5-{[2-chloro-3-(trifluoromethyl)phenyl]carbonyl}-1-pyrazin-2-yl-4,5,6,7-tetrahydro-1H-imidazo[4,5-c]pyridine-4-carboxylate], at human P2X7 [1], the “PBMC 1 μM (% control)” value was 4.8 % control. Further, the IC50 at human P2X7 [2] (setting [3]) is 6.5 nM; on rat P2X7 (setting [4]) it was 36.2 nM.

Consider `CC1c2nnn(-c3ncc[nH]3)c2CCN1C(=O)c1cccc(Cl)c1Cl` (stereo not drawn) [Example 384, (1-(1H-imidazol-2-yl)-4-methyl-6,7-dihydro-1H-[1,2,3]triazolo[4,5-c]pyridin-5(4H)-yl)(2,3-dichlorophenyl)methanone], for which, on human P2X7 [1] (test compound 10 μM), the “PBMC 10 μM (% control)” value is −6.3 % control. The values for the IC50 on human P2X7 [2] (setting [3]) and on rat P2X7 (setting [4]) were 1380 nM and greater than 10000 nM, respectively.

As to `CC(C)C1c2ncn(-c3cnccn3)c2CCN1C(=O)c1cccc(C(F)(F)F)c1Cl` (stereo not drawn) [Example 16, (2-Chloro-3-(trifluoromethyl)phenyl)(4-isopropyl-1-(pyrazin-2-yl)-6,7-dihydro-1H-imidazo[4,5-c]pyridin-5(4H)-yl)methanone], the “PBMC 1 μM (% control)” value on human P2X7 [1] amounted to 8.5 % control. Also, the IC50 turned out to be 93.7 nM at human P2X7 [2] (setting [3]) and 257 nM at rat P2X7 (setting [4]).

As for `Cc1cc(-n2nnc3c2CCN(C(=O)c2cc(Cl)cc(C(F)(F)F)c2)C3C)ncc1F` (stereo not drawn) [Example 361, (3-chloro-5-(trifluoromethyl)phenyl)(1-(5-fluoro-4-methylpyridin-2-yl)-4-methyl-6,7-dihydro-1H-[1,2,3]triazolo[4,5-c]pyridin-5(4H)-yl)methanone], the “PBMC 10 μM (% control)” value on human P2X7 [1] (test compound 10 μM) was 75.3 % control. In addition, the IC50 on human P2X7 [2] (setting [3]) and at rat P2X7 (setting [4]) was greater than 10000 nM each time.

`C[C@H]1c2nnn(-c3ccsc3)c2CCN1C(=O)c1cccc(C(F)(F)F)c1Cl` [Example 421, (S)-(2-chloro-3-(trifluoromethyl)phenyl)(4-methyl-1-(thiophen-3-yl)-6,7-dihydro-1H-[1,2,3]triazolo[4,5-c]pyridin-5(4H)-yl)methanone]: the “PBMC 10 μM (% control)” value at human P2X7 [1] (setting [5]) was −1.4 % control. Besides, the IC50 on human P2X7 [2] (setting [6]) is 1030 nM; at rat P2X7 (setting [7]), greater than 10000 nM.

Values taken from patent publication US10112937B2, “P2X7 modulators and methods of use” (Janssen Pharmaceutica NV, priority 2013, dated 2018).
